What all share (type): functional
The subject of assay [1] is Rattus norvegicus. The assay is described as follows: Hepatoprotective activity against thioacetamide-induced toxicity in rats at a dose of 6 mg/Kg dose (p.o. x 7 days) expressed as % protection afforded in […] (ALP) levels.
Assay [2] deals with Rattus norvegicus. The assay is described as follows: Hepatoprotective activity against thioacetamide-induced toxicity in rats at a dose of 6 mg/Kg dose (p.o. x 7 days), expressed as % protection afforded in glutamate oxaloacetate transaminase (GOT) levels.
Assay [3] has as its system Rattus norvegicus. The assay is described as follows: Hepatoprotective activity against thioacetamide-induced toxicity in rats at a dose of 6 mg/Kg dose (p.o. x 7 days), expressed as % protection afforded in glutamate pyruvate transaminase (GPT) levels.
Assay [4] has as its system Rattus norvegicus. The assay is described as follows: Hepatoprotective activity against thioacetamide-induced toxicity in rats at a dose of 6 mg/Kg dose (p.o. x 7 days), expressed as % protection afforded in serum bilirubin levels.
Assay [5] has as its system Rattus norvegicus. Briefly: Hepatoprotective activity against thioacetamide-induced toxicity in rats at a dose of 6 mg/Kg dose (p.o. x 7 days), expressed as % protection afforded in […] (ALP) levels.

As for `Cc1ccccc1N1C(=O)C2C(=O)N(c3ccccc3C)C(=O)N3CCN(C1=O)C23` (stereo unspecified), the Protection is 16% in the assay with Rattus norvegicus [1], 18% in the assay with Rattus norvegicus [2], 15% with Rattus norvegicus [3] and 18% with Rattus norvegicus [4].
For `CC/N=C(/S)N1CCn2c1c(C#N)c(=O)n(CC)c2=S`, the Protection with Rattus norvegicus [1] is 56%; in the assay on Rattus norvegicus [2], 31%; in the assay on Rattus norvegicus [3], 70%; in the assay with Rattus norvegicus [4], 60%.
With `CCN1C(=O)C2C(=O)N(CC)C(=S)N3CCN(C1=S)C23` (stereo unspecified), the Protection is given as 22% in the assay with Rattus norvegicus [1], 20% in the assay with Rattus norvegicus [2], 34% in the assay with Rattus norvegicus [3] and 31% in the assay with Rattus norvegicus [4].
As to `CCN1C(=N)C2C(=O)N(CC)C(=S)N3CCCN(C1=S)C23` (stereo unspecified), the Protection in the assay on Rattus norvegicus [1] turned out to be 48%; with Rattus norvegicus [2], 40%; with Rattus norvegicus [3], 50%; with Rattus norvegicus [4] it was 50%.
In the case of `CCN1C(=N)C2C(=O)N(CC)C(=S)N3CCN(C1=S)C23` (stereo unspecified), the Protection in the assay on Rattus norvegicus [1] amounted to 17%; in the assay with Rattus norvegicus [2] it was 50%; with Rattus norvegicus [3], 87%; in the assay with Rattus norvegicus [4] it was 57%.
Take `CCO/C(O)=C(\C1=NCCN1)c1nnc(N)s1`: the Protection in the assay with Rattus norvegicus [5] is listed as 19%; in the assay on Rattus norvegicus [2], 33%; with Rattus norvegicus [3], 51%; in the assay with Rattus norvegicus [4] it was 53%.
On to `CCO/C(O)=C(\C1=NCCCN1)c1nnc(N)s1`, for which the Protection in the assay on Rattus norvegicus [1] was 38%; in the assay with Rattus norvegicus [2], 26%; in the assay on Rattus norvegicus [3], 50%; with Rattus norvegicus [4] it was 22%.
For `O=C1C2C(=O)N(c3ccccc3)C(=S)N3CCN(C(=S)N1c1ccccc1)C23` (stereo unspecified), the Protection with Rattus norvegicus [1] was 20%; in the assay with Rattus norvegicus [2], 27%; in the assay with Rattus norvegicus [3], 18%; with Rattus norvegicus [4] it was 25%.
For SILYMARIN, in that order: 47%, 50%, 47% and 61%.

The record behind these values is ChEMBL document CHEMBL1152110, “Tetraazaacenaphthene and tetraazaphenalene derivatives: A new class of hepatoprotectants: Part IV” (1995).
